Columns and labels:
[1] = pKa of amine lipid by TNS fluorescence; format: physicochemical; conditions: probe TNS (6-(p-toluidino)-2-naphthalenesulfonic acid sodium salt), unformulated amine lipid in ethanol, sodium phosphate buffers -9.0
How it was run: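 pKa derived from a sigmoidal fit of normalized TNS fluorescence (321 nm excitation, 448 nm emission) versus pH. Lipid from ethanol stock diluted to about 100 μM final in 0.1 M phosphate buffers, pH 4.5–9.0.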

mouse B2M gene = assay: In vivo editing in mouse liver, LNP with Cas9 mRNA and sgRNA G650, NGS; conditions: Table 3; guide G650; CD-1 female mice, 0.1 mpk i.v., liver at 6 or 7 days; Exp. 2-7
Experimental: LNPs were prepared using various amine lipids in a 4-component lipid system consisting of an ionizable lipid (e.g. an amine lipid), DSPC, cholesterol and PEG-2k-DMG. In assays for percent liver editing in mice, Cas9 mRNA and chemically modified sgRNA targeting a mouse sequence were formulated in LNPs, at either a 1:1 w/w ratio or a 1:2 w/w ratio.
The lipid components were dissolved in 100% ethanol with the lipid component molar ratios described below. The chemically modified sgRNA and Cas9 mRNA were combined and dissolved in 25 mM citrate, 100 mM NaCl, pH 5.0, resulting in a concentration of total RNA cargo of approximately 0.45 mg/mL. The LNPs were formulated with an N/P ratio of about 6, with the ratio of chemically modified sgRNA: Cas9 mRNA at either a 1:1 or 1:2 w/w ratio as described below.
CD-1 female mice, ranging from 6-10 weeks of age were used in each study. Animals were weighed and grouped according to body weight for preparing dosing solutions based on group average weight. LNPs were dosed via the lateral tail vein in a volume of 0.2 mL per animal (approximately 10 mL per kilogram body weight). The animals were periodically observed for adverse effects for at least 24 hours post dose.
For studies measuring in vivo editing in liver, CD-1 female mice were dosed at 0.1 mpk unless otherwise noted. Animals were euthanized at 6 or 7 days by exsanguinationvia cardiac puncture under isoflourane anesthesia. Liver tissue was collected from each animal for DNA extraction and analysis. Blood was collected into serum separator tubes or into tubes containing buffered sodium citrate for plasma as described herein. Cohorts of mice were measured for editing by Next-Generation Sequencing (NGS).
In brief, to quantitatively determine the efficiency of editing at the target location in the genome, genomic DNA was isolated and deep sequencing was utilized to identify the presence of insertions and deletions introduced by gene editing.
PCR primers were designed around the target site (e.g., B2M), and the genomic area of interest was amplified. Additional PCR was performed according to the manufacturer's protocols (Illumina) to add the necessary chemistry for sequencing. The amplicons were sequenced on an Illumina MiSeq instrument. The reads were aligned to the relevant reference genome (e.g., GRCm38) after eliminating those having low quality scores. The resulting files containing the reads were mapped to the reference genome (BAM files), where reads that overlapped the target region of interest were selected and the number of wild type reads versus the number of reads which contain an insertion, substitution, or deletion was calculated.
The editing percentage (e.g., the “editing efficiency” or “percent editing”) is defined as the total number of sequence reads with insertions or deletions over the total number of sequence reads, including wild type.
We assessed in vivo editing efficiency for materials delivered with formulations including various amine lipid compounds. Editing was measured using either G282 (SEQ ID No: 1) which targets the mouse TTR gene or G650 (SEQ ID No. 2) which targets the mouse B2M gene. Lipids described above were assessed for efficacy through in vivo editing experiments. LNPs were formulated at a 1:1 w/w ratio of sgRNA to Cas9 mRNA, and at an N/P ratio of about 6. Molar concentrations of lipids in the lipid component of the LNPs are expressed as mol % amine lipid/DSPC/cholesterol/PEG-2k-DMG, e.g. 50/10/38.5/1.5. The final LNPs were characterized to determine the encapsulation efficiency, polydispersity index, and average particle size according to the analytical methods provided above. Analysis of average particle size, polydispersity (PDI), total RNA content and encapsulation efficiency of RNA are shown in Table 2.

[2] = LNP average particle size and polydispersity by dynamic light scattering; format: physicochemical; conditions: LNP with the compound as amine lipid; Expt. 9; composition ratio (mol %) 50/9/38/3 for Cmpnd 49, 50/10/38.5/1.5 for the others
How it was run: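 LNPs were diluted in PBS to a count rate of about 200-400 kcps and measured by DLS on a Zetasizer. Size is the intensity-weighted Z-average diameter, reported with number-average diameter, and the polydispersity index describes the spread of sizes around the mean.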

[3] = RNA encapsulation efficiency of LNP (Ribogreen fluorescence assay); format: physicochemical; conditions: LNP with the compound as amine lipid; Expt. 9; composition ratio (mol %) 50/9/38/3 for Cmpnd 49, 50/10/38.5/1.5 for the others
How it was run: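 LNP samples diluted in 1× TE with or without 0.2% Triton-X 100 for total or free RNA, stained ~10 min at room temperature in the dark with RiboGreen; fluorescence ex 488/em 525 nm against RNA standard curves. Encapsulation efficiency = (Total RNA−Free RNA)/Total RNA.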

mouse TTR = assay: Serum TTR ELISA in mice after LNP delivery; format: in vivo; conditions: mouse serum, relative to TSS control of same experiment, dose 0.03 mpk
How it was run: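 Mouse TTR in serum was quantified by ELISA (samples diluted e.g. 10,000- and/or 2,500-fold) 6–7 days after dosing CD-1 females with LNP, typically 0.1 mpk. Values are reported relative to vehicle-treated controls (%).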

CCCCC/C=C\C/C=C\CCCCCCCC(=O)OCC(COC(=O)CCCCCCC/C=C\C/C=C\CCCCC)OC(=O)CCC(CCCCCCCCCCCC)OC(=O)OC1CCN(CC)CC1 (stereo not shown) [Compound 6, 2-((4-((((1-ethylpiperidin-4-yl)oxy)carbonyl)oxy)hexadecanoyl)oxy)propane-1,3-diyl (9Z,9′Z,12Z,12′Z)-bis(octadeca-9,12-dienoate)]
pKa [1]: 5.37
Editing Mean % Indel (mouse B2M gene): 0.4%

CCCCC/C=C\C/C=C\CCCCCCCC(=O)OCC(COC(=O)CCCCCCC/C=C\C/C=C\CCCCC)OC(=O)CCC(CCCCCCCCCCCC)OC(=O)C1(C)CCN(C)CC1 (stereo not shown) [Compound 10, 2-((4-((1,4-dimethylpiperidine-4-carbonyl)oxy)hexadecanoyl)oxy)propane-1,3-diyl (9Z,9′Z,12Z,12′Z)-bis(octadeca-9,12-dienoate)]
pKa [1]: 6.05
Editing Mean % Indel (mouse B2M gene): 5.3%

CCCCC/C=C\C/C=C\CCCCCCCC(=O)OCC(COC(=O)CCCCCCC/C=C\C/C=C\CCCCC)OC(=O)CCC(CCCCCCCCCCCC)OC(=O)CCCN(CC)CC (stereo not shown) [Compound 11, 2-((4-((4-(diethylamino)butanoyl)oxy)hexadecanoyl)oxy)propane-1,3-diyl (9Z,9′Z,12Z,12′Z)-bis(octadeca-9,12-dienoate)]
pKa [1]: 5.6
Editing Mean % Indel (mouse B2M gene): 9.2%

CCCCC/C=C\C/C=C\CCCCCCCC(=O)OCC(COC(=O)CCCCCCC/C=C\C/C=C\CCCCC)OC(=O)CCC(CCCCCCCCCCCC)OC(=O)NCCN(C)C (stereo not shown) [Compound 12, 2-((4-(((2-(dimethylamino)ethyl)carbamoyl)oxy)hexadecanoyl)oxy)propane-1,3-diyl (9Z,9′Z,12Z,12′Z)-bis(octadeca-9,12-dienoate)]
pKa [1]: 6.82
Editing Mean % Indel (mouse B2M gene): 5.5%

CCCCC/C=C\C/C=C\CCCCCCCC(=O)OCC(COC(=O)CCCCCCC/C=C\C/C=C\CCCCC)OC(=O)CCC(CCCCCCCCCCCC)OC(=O)OCCCCN(CC)CC (stereo not shown) [Compound 14, 2-((4-(((4-(diethylamino)butoxy)carbonyl)oxy)hexadecanoyl)oxy)propane-1,3-diyl (9Z,9′Z,12Z,12′Z)-bis(octadeca-9,12-dienoate)]
pKa [1]: 5.91
Editing Mean % Indel (mouse B2M gene): 20.6%

CCCCC/C=C\C/C=C\CCCCCCCC(=O)OCC(COC(=O)CCCCCCC/C=C\C/C=C\CCCCC)OC(=O)CCC(CCCCCCCCCCCC)OC(=O)NCCN(CC)CC (stereo not shown) [Compound 15, 2-((4-(((2-(diethylamino)ethyl)carbamoyl)oxy)hexadecanoyl)oxy)propane-1,3-diyl (9Z,9′Z,12Z,12′Z)-bis(octadeca-9,12-dienoate)]
pKa [1]: 5.9
Editing Mean % Indel (mouse B2M gene): 18.0%

CCCCC/C=C\C/C=C\CCCCCCCC(=O)OCC(COC(=O)CCCCCCC/C=C\C/C=C\CCCCC)OC(=O)CCC(CCCCCCCCCCCC)OC(=O)OCCC1CCCN1C (stereo not shown) [Compound 16, 2-((4-(((2-(1-methylpyrrolidin-2-yl)ethoxy)carbonyl)oxy)hexadecanoyl)oxy) propane-1,3-diyl (9Z,9′Z,12Z,12′Z)-bis(octadeca-9,12-dienoate)]
pKa [1]: 5.72
Editing Mean % Indel (mouse B2M gene): 10.1%

CCCCC/C=C\C/C=C\CCCCCCCC(=O)OCC(COC(=O)CCCCCCC/C=C\C/C=C\CCCCC)OC(=O)CCC(CCCCCCCCCCCCCCCC)OC(=O)OCCCN(C)C (stereo not shown) [Compound 17, 2-((4-(((3-(dimethylamino)propoxy)carbonyl)oxy)icosanoyl)oxy)propane-1,3-diyl (9Z,9′Z,12Z,12′Z)-bis(octadeca-9,12-dienoate)]
pKa [1]: 6.18
Editing Mean % Indel (mouse B2M gene): 12.3%

CCCCC/C=C\C/C=C\CCCCCCCC(=O)OCC(COC(=O)CCCCCCC/C=C\C/C=C\CCCCC)OC(=O)CCC(CCCCCCCCCCCCCCCC)OC(=O)OCCCN(C)CC (stereo not shown) [Compound 18, 2-((4-(((3-(ethyl(methyl)amino)propoxy)carbonyl)oxy)icosanoyl)oxy)propane-1,3-diyl (9Z,9′Z,12Z,12′Z)-bis(octadeca-9,12-dienoate)]
pKa [1]: 5.83
Editing Mean % Indel (mouse B2M gene): 4.5%

CCCCC/C=C\C/C=C\CCCCCCCC(=O)OCC(COC(=O)CCCCCCC/C=C\C/C=C\CCCCC)OC(=O)CCC(CCCCCCCCCCCCCCCC)OC(=O)OCCCN1CCCC1 (stereo not shown) [Compound 19, 2-((4-(((3-(pyrrolidin-1-yl)propoxy)carbonyl)oxy)icosanoyl)oxy)propane-1,3-diyl (9Z,9′Z,12Z,12′Z)-bis(octadeca-9,12-dienoate)]
pKa [1]: 5.99
Editing Mean % Indel (mouse B2M gene): 13.0%

CCCCC/C=C\C/C=C\CCCCCCCC(=O)OCC(COC(=O)CCCCCCC/C=C\C/C=C\CCCCC)OC(=O)CCC(CCCCCCCCCCCCCCCC)OC(=O)NCCN(C)CC (stereo not shown) [Compound 20, 2-((4-(((2-(ethyl(methyl)amino)ethyl)carbamoyl)oxy)icosanoyl)oxy)propane-1,3-diyl (9Z,9′Z,12Z,12′Z)-bis(octadeca-9,12-dienoate)]
pKa [1]: 6.17
Editing Mean % Indel (mouse B2M gene): 15.4%

CCCCC/C=C\C/C=C\CCCCCCCC(=O)OCC(COC(=O)CCCCCCC/C=C\C/C=C\CCCCC)OC(=O)CCC(CCCCCCCCCCCCCCCC)OC(=O)NCC1CCCN1C (stereo not shown) [Compound 21, 2-((4-((((1-methylpyrrolidin-2-yl)methyl)carbamoyl)oxy)icosanoyl)oxy)propane-1,3-diyl (9Z,9′Z,12Z,12′Z)-bis(octadeca-9,12-dienoate)]
pKa [1]: 6.12
Editing Mean % Indel (mouse B2M gene): 12.1%

CCCCCC/C=C\COC(=O)CCCCCCCC(=O)OCC(COC(=O)CCCCCCCC(=O)OC/C=C\CCCCCC)OC(=O)CCC(CCCCCCCCCCCC)OC(=O)OCCCN(C)C (stereo not shown) [Compound 22, O′1,O1-(2-((4-(((3-(dimethylamino)propoxy)carbonyl)oxy)hexadecanoyl)oxy)propane-1,3-diyl) 9,9′-di((Z)-non-2-en-1-yl) di(nonanedioate)]
pKa [1]: 6.06
Editing Mean % Indel (mouse B2M gene): 6.7%

CCCCCC/C=C\COC(=O)CCCCCCCC(=O)OCC(COC(=O)CCCCCCCC(=O)OC/C=C\CCCCCC)OC(=O)CCC(CCCCCCCCCCCC)OC(=O)NCCN(C)CC (stereo not shown) [Compound 23, O′1,O1-(2-((4-(((2-(ethyl(methyl)amino)ethyl)carbamoyl)oxy)hexadecanoyl)oxy)propane-1,3-diyl) 9,9′-di((Z)-non-2-en-1-yl) di(nonanedioate)]
pKa [1]: 6.19
Editing Mean % Indel (mouse B2M gene): 7.3%

CCCCC/C=C\C/C=C\CCCCCCCC(=O)OCC(COC(=O)CCCCCCC/C=C\C/C=C\CCCCC)OC(=O)CCC(CC/C=C\CCCCC)OC(=O)NCCN1CCCC1 (stereo not shown) [Compound 108, 2-(((Z)-4-(((2-(pyrrolidin-1-yl)ethyl)carbamoyl)oxy)tridec-7-enoyl)oxy)propane-1,3-diyl (9Z,9′Z,12Z,12′Z)-bis(octadeca-9,12-dienoate)]
pKa [1]: 6.52
Num Ave Size (nm) [2]: 73 nm
PDI [2]: 0.03
Z-Ave Size (nm) [2]: 89 nm
Encapsulation (%) [3]: 99%
Serum TTR % TSS (mouse TTR): 57.12 % TSS

Source: US12077483B2, “Modified amine lipids” (Intellia Therapeutics, Inc., priority 2018, dated 2024)
